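Interpolation was linear, between the two tested concentrations surrounding the appropriate level; five concentrations were tested over 48 hours in 96-well plates. GI50 marks 50% less growth.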 The source made the active and inactive calls. No stated cut-off is given here; in the data, active = GI50 up to about 1.1 µM and inactive = higher. Bounds are passed on as bounds.

Among the test systems are KM-20L2; XF498; HOP-18; SNB-78; M19-MEL; DMS-114; RXF 631.
What all share (assay): inhibition of tumour cell growth, NCI panel, 48 h

For the compound `CC12CC[C@H](O)C(C)(C)[C@H]1CC[C@](C)(O)C2COc1ccc2ccc(=O)oc2c1` (stereo not given in full), the GI50 was > 100 µM (inactive) with KM-20L2; > 100 µM (inactive) with XF498; > 100 µM (inactive) in the assay with HOP-18; 48.4 µM (inactive) in the assay on SNB-78; > 100 µM (inactive) in the assay on M19-MEL; 85.3 µM (inactive) in the assay on DMS-114.

As to `CC(C)(C)c1cc(C(=O)O)c(C(c2ccccc2)c2ccccc2C(=O)O)c(C(=O)O)c1` (stereo not given), the GI50 with KM-20L2, in the assay on XF498, in the assay with HOP-18, in the assay with SNB-78 and in the assay with DMS-114 was > 100 µM (inactive) each time.

With `CC1(C)O[C@@H](CC/C=C/CO)[C@H](CC/C=C/CO)O1`, the GI50 in the assay with KM-20L2, with XF498, in the assay with HOP-18, in the assay with SNB-78, with M19-MEL and in the assay with DMS-114 was > 100 µM (inactive) in each case.

Regarding `CCOC(=O)C(=O)/C=C(\C)Nc1c(NC2OCC(OC(C)=O)C(OC(C)=O)C2OC(C)=O)nc(SC)[nH]c1=O` (stereo not given), the GI50 with KM-20L2, in the assay with XF498, in the assay on HOP-18, in the assay with M19-MEL and in the assay on DMS-114 was > 100 µM (inactive) throughout.

For `CC(=O)C=C1Nc2ccccc2N1`, the GI50 in the assay on KM-20L2, with XF498, with SNB-78, in the assay on RXF 631 and in the assay with M19-MEL was > 100 µM (inactive) each time.

For the compound `O=C(O)CCN(CCCN(CCC(=O)O)CCC(=O)O)CCC(=O)O`, the GI50 in the assay with KM-20L2, in the assay with XF498, in the assay on HOP-18, with RXF 631, in the assay on M19-MEL and in the assay with DMS-114 was > 100 µM (inactive) in each case.

Consider `OCC1OC(NO)C(O)C(O)C1O` (stereo not given), for which the GI50 in the assay on KM-20L2, in the assay on XF498, in the assay with HOP-18, in the assay with SNB-78, with RXF 631 and in the assay on M19-MEL was > 100 µM (inactive) each time.

Regarding `N#C/C(N)=N/c1ccccc1`, the GI50 with KM-20L2 is > 100 µM (inactive); with HOP-18 it was > 100 µM (inactive); with RXF 631, > 100 µM (inactive); in the assay on M19-MEL it was > 100 µM (inactive); with DMS-114 it was 16.9 µM (inactive).

Take `C[N+](C)(C)CC(=O)N/N=C(/Cc1cc(=O)oc2cc(O)ccc12)C(=O)Nc1ccc(Cl)cc1`: the GI50 in the assay on KM-20L2, in the assay with RXF 631, in the assay on M19-MEL and in the assay on DMS-114 was > 100 µM (inactive) in each case.

Take `CCc1cccc(C)c1N1C(=O)C(=O)C(c2nc3ccccc3o2)C(=O)C1=O`: the GI50 in the assay with KM-20L2, in the assay on XF498, with HOP-18, with SNB-78 and with M19-MEL was > 100 µM (inactive) throughout.

`O=C(O)C(C(=O)C(=O)C(C(=O)O)c1ccc(Cl)cc1)c1ccc(Cl)cc1` (stereo not given): the GI50 in the assay on KM-20L2 was 3.31 µM (inactive); in the assay with XF498 it was 2.43 µM (inactive); with HOP-18 it was 5.32 µM (inactive); in the assay on SNB-78 it was 3.27 µM (inactive); with M19-MEL it was 3.39 µM (inactive); in the assay on DMS-114, 2.24 µM (inactive).

Take `CCCN/C(N)=N/C#N`: the GI50 with KM-20L2 is 34.7 µM (inactive); in the assay with HOP-18, > 100 µM (inactive); in the assay with SNB-78, > 100 µM (inactive); in the assay with M19-MEL it was 77.6 µM (inactive); in the assay on DMS-114 it was 19.4 µM (inactive).

Regarding `CN(C(=O)C12C3C4C1C1C4(C(=O)C45C6C7C4C4C5C6C74C)C3C12C)C(C)(C)C` (stereo not given), the GI50 in the assay with KM-20L2 is 31.2 µM (inactive); in the assay with XF498, 49 µM (inactive); in the assay on SNB-78 it was 78.3 µM (inactive); in the assay on RXF 631 it was 34.6 µM (inactive); in the assay on M19-MEL it was 45.9 µM (inactive); in the assay with DMS-114, 39.8 µM (inactive).

As to `Cc1ccc2[nH]c(Sc3c([N+](=O)[O-])ncn3C)nc2c1`, the GI50 in the assay on KM-20L2 is 25.6 µM (inactive); in the assay on XF498 it was 0.586 µM (active); in the assay on HOP-18, 17.5 µM (inactive); with SNB-78, 23.2 µM (inactive); in the assay on RXF 631, 17.2 µM (inactive); in the assay with M19-MEL it was 18.5 µM (inactive). The GI50 in the assay on DMS-114 was 14.3 µM (inactive).

On to `C[Si](C)(C)CN1C(=O)c2ccccc2C1(O)c1ccccc1` (stereo not given), for which the GI50 in the assay on KM-20L2 was > 100 µM (inactive); with XF498, 73.8 µM (inactive); in the assay with HOP-18, > 100 µM (inactive); in the assay on SNB-78, > 83.9 µM (inactive); in the assay with RXF 631, 88.9 µM (inactive); in the assay on DMS-114, 41.6 µM (inactive).

Take `COc1cccc(C=O)c1C(=O)c1cc(O)ccc1O`: the GI50 with KM-20L2 was > 100 µM (inactive); with XF498, 44.2 µM (inactive); in the assay with HOP-18, 25.1 µM (inactive); with SNB-78, > 45.9 µM (inactive); with M19-MEL, 30.8 µM (inactive); with DMS-114 it was 11 µM (inactive).

With `CCCCCCCCCCCCCC(=O)CC(=O)c1c(O)cccc1O`, the GI50 was 47.4 µM (inactive) with KM-20L2; 24.5 µM (inactive) with XF498; 33.3 µM (inactive) in the assay with HOP-18; 32.3 µM (inactive) in the assay with SNB-78; 30.5 µM (inactive) with M19-MEL; 21.5 µM (inactive) in the assay with DMS-114.

In the case of `CC(=O)c1ccc(NC(=O)COC(=O)c2cccc3c(=O)c4ccccc4[nH]c23)cc1`, the GI50 in the assay on KM-20L2 was > 100 µM (inactive); in the assay on XF498 it was 23.1 µM (inactive); in the assay with HOP-18, > 100 µM (inactive); in the assay with SNB-78 it was 31.4 µM (inactive); in the assay with RXF 631 it was 20.6 µM (inactive); in the assay with M19-MEL it was 25.5 µM (inactive). The GI50 in the assay with DMS-114 is 34.8 µM (inactive).

In the case of `O=C(Cn1cc(I)c(C(=O)NCC(O)CO)n1)NCC(O)CO` (stereo not given), the GI50 in the assay on KM-20L2, with XF498, with HOP-18, in the assay with SNB-78, with M19-MEL and in the assay on DMS-114 was > 100 µM (inactive) each time.

As to `CCOC(=O)c1cc(/C=C/C(C)=C/C(=O)OC)n(C)c1C`, the GI50 in the assay with KM-20L2 is 74 µM (inactive); in the assay on XF498, 93.1 µM (inactive); in the assay on SNB-78, > 100 µM (inactive); in the assay on RXF 631, > 100 µM (inactive); in the assay on M19-MEL, > 100 µM (inactive).

In the case of `CCCCCCCCCCCCCP(=O)(OC)OC`, the GI50 with KM-20L2 is 26.8 µM (inactive); in the assay on XF498, 17.9 µM (inactive); with HOP-18, 18.1 µM (inactive); in the assay on SNB-78 it was 17.5 µM (inactive); in the assay on RXF 631, 17.7 µM (inactive); with M19-MEL, 19.3 µM (inactive). Besides, the GI50 in the assay on DMS-114 is 21.6 µM (inactive).
